Test results: patent publication US20150150810A1, “TABLETS FOR COMBINATION THERAPY” (Gilead Sciences, Inc., priority 2009, published 2015)

How the values were obtained:
[1] = Pharmacokinetic dose-ranging study of the compound of Formula II; assay type: in vivo; settings: 100 mg dose
Experimental: A pharmacokinetic dose-ranging study involving the compound of Formula II was conducted. Doses for the compound of Formula II for the dose-ranging study included 50 mg, 100 mg and 200 mg.

[2] = Pharmacokinetic study of fixed-dose combinations of Formula I/Formula II/Formula III/Formula IV; assay type: in vivo; settings: mean (CV %); for Cmax / AUC: in vivo
Experimental: A pharmacokinetic study involving two fixed-dose combinations of the compounds of Formula I/Formula II/Formula III/Formula IV was also conducted. Doses for the fixed-dose combination of the compounds of Formula I/Formula II/Formula III/Formula IV were 150 mg/100 mg/200 mg/300 mg (Dose A) and 150 mg/150 mg/200 mg/300 mg (Dose B) respectively. Pharmacokinetic data for the compound of Formula II from the study involving the two fixed dose combinations (Dose A and Dose B) is provided in the following table.

[3] = Chemical stability of Formula IV in tablet combinations; assay type: physicochemical
From the text: Additionally, improper combinations of the compounds of Formula I, II, III, or IV in a bilayer tablet will also compromise the chemical stability of Formula IV. For example, Formula IV in the presence of silicon dioxide from the Formula II formulation will decompose Formula IV; and Formula IV in the in the presence of sodium lauryl sulphate from the Formula I formulation will decompose Formula IV.

[4] = in vivo, n = 11, arithmetic mean
[5] = Dose A: 150 mg/100 mg/200 mg/300 mg, n = 43
[6] = Dose B: 150 mg/150 mg/200 mg/300 mg, n = 42

| CL/F ([1]; n = 11, arithmetic mean) [L/h] | T1/2 ([1]; n = 11, median) [h] | AUC [1, 4] [ng·h/mL] | Cmax [1, 4] [ng/mL] | Ctau [2, 5] | Ctau [2, 6] | Cmax [2, 5] [ng/mL] | AUC ([2]; Dose A: Formula I/II/III/IV 150 mg/100 mg/200 mg/300 mg, n = 43) [ng·h/mL] | Cmax [2, 6] [ng/mL] | AUC ([2]; Dose B: Formula I/II/III/IV 150 mg/150 mg/200 mg/300 mg, n = 42) [ng·h/mL] | Structure (SMILES) | chemical stability of Formula IV ([3]; Formula I, II, III and IV combined in a mixture as mono layer tablet) | chemical stability of Formula IV ([3]; in the presence of silicon dioxide from the Formula II formulation) | chemical stability of Formula IV ([3]; in the presence of sodium lauryl sulphate from the Formula I formulation) |
| --- | --- | --- | --- | --- | --- | --- | --- | --- | --- | --- | --- | --- | --- |
| 33.2 | 3.12 | 3440 | 563 | 10.8 (83.6) ng/mL | 23.3 (103) ng/mL | 855 | 5150 | 1570 | 10400 | CC(C)c1nc(CN(C)C(=O)N[C@@H](CCN2CCOCC2)C(=O)N[C@H](CC[C@H](Cc2ccccc2)NC(=O)OCc2cncs2)Cc2ccccc2)cs1 [Formula II] | – | – | – |
| – | – | – | – | – | – | – | – | – | – | CC(C)OC(=O)OCOP(=O)(CO[C@H](C)Cn1cnc2c(N)ncnc21)OCOC(=O)OC(C)C.O=C(O)/C=C/C(=O)O [Formula IV, tenofovir disoproxil fumarate] | compromises the chemical stability | decompose | decompose |
